The values below come from the METLIN SMRT retention time set (Domingo-Almenara et al. 2019).

SMILES strings stand for the structures.

This series is described as follows: gradient 5% acetonitrile 3 min, to 50% in 2 min, to 85% in 15 min, held 3 min, 100 µL/min. The note with it: column: Zorbax Extend-C18 2.1 x 50 mm; eluents: water / acetonitrile, 0.1% formic acid. The method in brief:
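Standards, all pure, were combined into mixtures of ~100 molecules and run at 100 μL/min on a Zorbax Extend-C18 column (2.1 × 50 mm, 1.8 μm) with water and acetonitrile, each containing 0.1% formic acid. A coupled quadrupole time-of-flight mass spectrometer operated in positive and negative ionization mode. Retention time values come from computationally picked adduct peaks, each inspected manually.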
`Cc1nc(NC(=O)c2ccccc2)n[nH]1` came in with an RP-LC retention time of 583 s.

Regarding `COc1cc(NC(=O)N2CCCC2c2nc(-c3ccccc3OC)no2)cc(OC)c1` (stereo not drawn), the RP-LC retention time was determined as 849 s.

`O=C1NCCCn2cc(S(=O)(=O)N3CCN(c4cccc(Cl)c4)CC3)cc21` gave an RP-LC retention time of 804 s.

The molecule `Cc1cccc(N2CCN(C(=S)Nc3ccc4nc(N5CCN(C)CC5)cc(C)c4c3)CC2)c1C` displayed an RP-LC retention time of 655 s.

Turning to `O=C(NCC(O)(c1ccccc1)C(F)(F)F)c1cnccn1` (stereo not drawn), the RP-LC retention time stood at 710 s.

The molecule `Cc1ccc2ncn(C3CCN(C(=O)Nc4ccccc4)CC3)c(=O)c2c1` displayed an RP-LC retention time of 751 s.

Consider `Cc1nnc(NC(=O)C2CCN(C(=O)c3ccc(F)cc3)CC2)s1`, for which the RP-LC retention time is 624 s.

On to `COC(=O)c1ccc(NC(=O)CSc2ncnc3c2nnn3C)cc1`, for which the RP-LC retention time came to 683 s.

As to `CCc1noc(NC(C)=O)c1-c1ccc(OC)c(S(=O)(=O)N2CC=C(c3ccccc3)CC2)c1`, the RP-LC retention time stood at 918 s.

As to `COCCNC(=O)CN1CCN(c2cc(C(=O)O)c3cc(NC(=O)c4ccccc4)ccc3n2)CC1`, the RP-LC retention time came out at 592 s.

Molecule `CCOC(=O)c1[nH]c(C)c(CCC(=O)N2CCC(C(=O)NC(C)CC)CC2)c1C` (stereo not drawn) displayed an RP-LC retention time of 723 s.

In the case of `CN(CC1CCOCC1)C(=O)Nc1ccc(Cl)cc1F`, the RP-LC retention time stood at 726 s.

In the case of `Cc1cccn2cc(-c3cccc(S(=O)(=O)N(C)C)c3)nc12`, the RP-LC retention time is 620 s.

Consider `C=CCNC(=O)c1cnn(-c2ccc(-c3nc(C(C)(C)C)no3)cn2)c1C`, for which the RP-LC retention time was 759 s.

Molecule `COCCNC(=O)C1Cc2cc(C(F)(F)F)ccc2N2CCN(C(=O)c3ccco3)CC12` (stereo not drawn) gave an RP-LC retention time of 767 s.

`Fc1ccc(F)c(-c2nc(-c3ccc4c(c3)ncn4CCN3CCCC3)no2)c1` came in with an RP-LC retention time of 624 s.

Molecule `O=S(=O)(c1ccc(F)cc1Cl)N1CCCn2nc(-c3cccnc3)cc2C1` had an RP-LC retention time of 687 s.

`O=C(Nc1ccc(F)cc1)C1(c2cccs2)CCOCC1` returned an RP-LC retention time of 798 s.

Molecule `NC(=O)C1CCN(C(=O)CSc2nc3c(c(-c4ccccc4)n2)CCCC3)CC1` had an RP-LC retention time of 702 s.

`CN1CCN(C(=O)C2CCN(S(=O)(=O)c3ccc(-c4noc(C5CC5)n4)cc3)CC2)CC1` had an RP-LC retention time of 636 s.

On to `Cc1cn(C)c(CC(=O)NCc2ccc3c(c2)OCO3)c1C(=O)O`, for which the RP-LC retention time stood at 687 s.

As to `COc1ccc(S(=O)(=O)Cc2nc(-c3ccc(Cl)cc3)no2)cc1`, the RP-LC retention time came out at 1030 s.

Take `CN(C(=O)CSc1nnc(-c2ccc(Cl)cc2)o1)C1CCCCC1`: the RP-LC retention time was determined as 1090 s.

Take `Cc1cc2nn(CC(=O)NCc3ccccc3)c(=O)n2c(Nc2ccccc2C)n1`: the RP-LC retention time worked out at 990 s.

Molecule `COc1ccc(N2CCN(C(=O)C3CCCN(c4ccncc4)C3)CC2)cc1` (stereo not drawn) showed an RP-LC retention time of 593 s.

For the molecule `Cc1cc(NC(=O)c2nc(C(C)C)oc2C)ccc1F`, the RP-LC retention time is 1140 s.

In turn, `CC1CN=C2C=C(N3CCN(C(=O)CCc4ccccc4)CC3)N=CN21` (stereo not drawn) had an RP-LC retention time of 620 s.

`CC(=O)c1cccc(NC(=O)c2c(F)cccc2F)c1` displayed an RP-LC retention time of 708 s.

`O=C(NCc1cc(F)cc(F)c1)C1CCN(c2ncnc3c2oc2ccccc23)CC1` yielded an RP-LC retention time of 752 s.

`COc1cccc2c1OC1(C)CC2C(S(=O)(=O)c2ccc(C(C)(C)C)cc2)C(=O)N1` (stereo not drawn) showed an RP-LC retention time of 1010 s.

Turning to `Cc1nc(-c2noc(-c3ccccc3)n2)cn1CC(=O)NCc1ccccc1`, the RP-LC retention time was 810 s.

`O=C(C1CCCN(S(=O)(=O)N2CCOCC2)C1)N1CCN(c2ccc(F)cc2)CC1` (stereo not drawn) displayed an RP-LC retention time of 807 s.

Turning to `COc1cc(CNS(=O)(=O)c2cccc(-c3nc(-c4ccccc4)no3)c2)cc(OC)c1OC`, the RP-LC retention time was determined as 1040 s.
